# Measurements reported in patent publication US20020182239A1, “Composition and method for inhibiting polar capsule discharge and protecting a subject from nematocyst sting” (priority 2002, published 2002).
# Like-named read-outs stand apart in the source and are kept apart here.
# What was measured:
# [1] = system: isolated nematocyst capsules; conditions: 50 mM CaCl2; cited from earlier work
# [2] = system: jellyfish Rhopilema nomadica nematocysts
compound,measurement,setting,value
[Ca+2].[Cl-].[Cl-] [CaCl2],discharge of isolated nematocyst capsules,[1],do not discharge
C=O [formalin],nematocysts in skin treated with ointment base alone relative to skin treated with formalin,[2]; 0.1% formalin,more than 5 times
same,decrease in nematocysts skin penetration,[2]; 0.1% formalin in ointment base vs ointment base alone,over 80%
same,nematocyst discharge and skin penetration,[2]; formalin concentration 0.01%,reduces nematocyst discharge and skin penetration
same,nematocyst discharge and skin penetration,[2]; formalin concentration 0.05%,reduces nematocyst discharge and skin penetration
same,average number of nematocysts counted on a skin sample,"[2]; ointment base containing 0.1% formalin, human skin sections, tentacles 10 seconds",5+/−4 nematocysts
